Data as given in US20190085024A1, “Alpha-Ketoamide Inhibitors Of Cysteine Proteases” (Phelix Therapeutics, priority 2017, published 2019).
Where two headings read alike, the source gives them in different places.

Assays:
Cathepsin L = Cathepsin L (Homo sapiens, UniProt P07711); assay: Cathepsin L enzyme assay; format: biochemical; settings: Ki by Morrison equation; pH 5.5, substrate Z-Phe-Arg-Amc; read-out: Cat L
Excerpt: Two wells contained DMSO only for controls.
Velocity was converted to μM/sec.

Cat S = Cat S (Homo sapiens, UniProt P25774); assay: Cat S inhibition; format: biochemical
Cat S, sequence (P25774 115-331): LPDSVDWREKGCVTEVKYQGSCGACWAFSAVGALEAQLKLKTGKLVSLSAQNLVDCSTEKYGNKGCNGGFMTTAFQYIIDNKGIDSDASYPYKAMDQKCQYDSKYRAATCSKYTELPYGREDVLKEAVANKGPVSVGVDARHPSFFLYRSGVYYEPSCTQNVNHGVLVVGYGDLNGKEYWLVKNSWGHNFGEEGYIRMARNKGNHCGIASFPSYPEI

Cat K = target: T1, Cat K (Homo sapiens, UniProt P43235); assay: Cat K inhibition; format: biochemical
T1 sequence (P43235 115-329): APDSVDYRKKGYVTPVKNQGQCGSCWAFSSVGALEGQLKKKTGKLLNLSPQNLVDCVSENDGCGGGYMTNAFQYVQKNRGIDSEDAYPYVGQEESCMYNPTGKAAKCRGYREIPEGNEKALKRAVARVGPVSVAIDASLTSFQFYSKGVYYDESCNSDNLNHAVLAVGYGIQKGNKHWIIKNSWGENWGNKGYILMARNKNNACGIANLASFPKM

Calpain = Calpain enzyme assay; format: biochemical; settings: Ki by Morrison equation; pH 7.5, 5 mM CaCl2
[1] = system: EBOV WT (Ebola Wild Type); assay: microbe, parasite or virus in culture; format: cell-based; settings: read-out: EBOV WT (μM) (Ebola Wild Type)
MERS WT = assay: microbe, parasite or virus in culture; format: cell-based
[2] = system: MARV WT (Marburg Wild Type); assay: organism not typed; format: cell-based; settings: read-out: MARV WT (μM) (Marburg Wild Type)
Cathepsin B = Cathepsin B (Homo sapiens, UniProt P07858); assay: Cathepsin B enzyme assay; settings: Cat B (μM), Ki by Morrison equation; pH 6.0, substrate Z-Phe-Arg-Amc
Collagen = assay: Fibrosis-Sirius Red Collagen Assay; format: cell-based
SMA = assay: Fibrosis-SMA Elisa; format: cell-based
[3] = Middle East respiratory syndrome-related coronavirus, read-out: MERS WT (μM)

Cathepsin L, sequence (P07711 114-333, species assumed): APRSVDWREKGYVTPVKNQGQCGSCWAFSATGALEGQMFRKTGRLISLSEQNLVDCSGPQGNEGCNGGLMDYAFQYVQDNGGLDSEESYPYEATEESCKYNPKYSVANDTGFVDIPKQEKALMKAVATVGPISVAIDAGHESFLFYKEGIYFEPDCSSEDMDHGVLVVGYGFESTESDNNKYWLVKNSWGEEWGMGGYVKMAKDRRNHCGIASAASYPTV

Compound	Ki (Cathepsin L) [nM]	Ki (Cat S) [nM]	Ki (Cat K) [nM]	Ki (Calpain) [nM]	IC50 ([1]; Zaire ebolavirus) [µM]	IC50 (MERS WT; [3]) [µM]	IC50 [2] [µM]	Ki (Cathepsin B) [µM]	IC50 [1] [µM]	IC50 (MERS WT; read-out: MERS WT) [µM]	IC50 (Collagen) [nM]	IC50 (SMA) [nM]
CC[C@H](C)[C@H](NC(=O)C(=O)C(Cc1ccccc1)NC(=O)C(Cc1ccccc1)NC(=O)Cc1ccccc1)C(=O)N1CCCC1C(N)=O (some centres unmarked) [PHELIX204, 1-((2-oxo-4-phenyl-3-(3-phenyl-2-(2-phenylacetamido)propanamido)butanoyl)isoleucyl)pyrrolidine-2-carboxamide]	0.01	0.44	9.3	204	0.13	1.8	0.42	0.277				
CC(NC(=O)C(Cc1ccc2ccccc2c1)NC(=O)Cc1ccccc1)C(=O)C(=O)NC(Cc1ccccc1)C(=O)NC(C)(C)C(N)=O (centres unmarked) [PHELIX206, N-(1-((1-amino-2-methyl-1-oxopropan-2-yl)amino)-1-oxo-3-phenylpropan-2-yl)-3-(3-(naphthalen-2-yl)-2-(2-phenylacetamido)propanamido)-2-oxobutanamide]	6.52	3.96	> 10000	> 10000	2.51	12.6	4.68	0.12				
CC(NC(=O)C(Cc1ccccc1)NC(=O)Cc1ccccc1)C(=O)C(=O)NC(Cc1ccccc1)C(=O)NC(Cc1ccc2ccccc2c1)C(N)=O (centres unmarked) [PHELIX215, N-(1-((1-amino-3-(naphthalen-2-yl)-1-oxopropan-2-yl)amino)-1-oxo-3-phenylpropan-2-yl)-2-oxo-3-(3-phenyl-2-(2-phenylacetamido)propanamido)butanamide]	0.18	0.48	22.2	> 10000			0.16	9.24	0.02	0.99		
CCC(C)C(NC(=O)C(CC(C)C)NC(=O)OCc1ccccc1)C(=O)C(=O)N1CC(C(=O)NC(Cc2ccc3ccccc3c2)C(N)=O)C1 (centres unmarked) [PHELIX297, benzyl (1-((1-(3-((1-amino-3-(naphthalen-2-yl)-1-oxopropan-2-yl)carbamoyl)azetidin-1-yl)-4-methyl-1,2-dioxohexan-3-yl)amino)-4-methyl-1-oxopentan-2-yl)carbamate]	42.4			39.9				0.235			3800	3400
CCC(C)C(NC(=O)C(CC(C)C)NC(=O)OCc1ccccc1)C(=O)C(=O)NC(Cc1ccc2ccccc2c1)C(N)=O (centres unmarked) [PHELIX309, benzyl (1-((1-((1-amino-3-(naphthalen-2-yl)-1-oxopropan-2-yl)amino)-4-methyl-1,2-dioxohexan-3-yl)amino)-4-methyl-1-oxopentan-2-yl)carbamate]	9.76			1.34				> 10			2700	2000
CCC(C)C(NC(=O)C(CC(C)C)NC(=O)CN1CCOCC1)C(=O)C(=O)NCC(=O)NC(Cc1ccc2ccccc2c1)C(N)=O (centres unmarked) [PHELIX314, N-(2-((1-amino-3-(naphthalen-2-yl)-1-oxopropan-2-yl)amino)-2-oxoethyl)-4-methyl-3-(4-methyl-2-(2-morpholinoacetamido)pentanamido)-2-oxohexanamide]	3.06			2.44				0.387				1200
